The conditions of experiment [1]: stated as known; cited from earlier work.
Experiment [2] concerns person who underwent hip replacement surgery because of coxarthrosis. The text has this: A person underwent hip replacement surgery because of coxarthrosis (their right leg being […] shorter). The surgery was initiated at 10:00 a.m. on Jul. 10, 2019 and completed around 11 o'clock a.m. on the same day.
Initially, use of crutches for three months was planned as in usual cases, based on the anticipated postoperative course (that is, the patient was expected to use both crutches for the first 1.5 months and one crutch for the subsequent 1.5 months).

On to `[2H][2H]` [D2, deuterium], for which the “superoxide eliminating effect compared with H2” value in experiment [1] is given as “stronger superoxide eliminating effect than that of H2”.
Take `[HH]` [hydrogen, molecular hydrogen]: the “time after the surgery at which the patient did not need to use crutches” value in experiment [2] (hydrogen gas approximately 5.0%, approximately 200 mL/min, inhaled three to four hours per day from immediately after surgery, with rehabilitation, crutches for three months had been planned) worked out at 13 days. Besides, the postoperative recovery entry in experiment [2] (hydrogen inhalation from immediately after hip replacement surgery, approximately 5.0% hydrogen, three to four hours per day, with rehabilitation) is recorded as “achieved early postoperative recovery”. The “discharge from hospital (date)” value in experiment [2] (surgery on Jul. 10, 2019, hydrogen inhalation from immediately after the surgery) was “July 20”.

These data come from patent publication US20210213049A1, “METHOD AND MOLECULAR HYDROGEN-CONTAINING COMPOSITION FOR PROMOTION OF POSTOPERATIVE RECOVERY” (MiZ Company Limited, priority 2020, published 2021).
